Reference: patent US20240158446A1, “CYCLIC COMPOUND HAVING SELECTIVE INHIBITORY ACTION ON KRAS OVER HRAS AND NRAS” (CHUGAI SEIYAKU KABUSHIKI KAISHA, priority 2021, published 2024)
*1 amine or outer side, *2 acyl side, *3 side chain or, on linkers, in order; H or OH if unused. Where a SMILES comes first, the peptide text is derived from it. Bridges are numbered along the chain shown (N, C = ends). [ ]: non-standard residue; d: D form. The star is where a group is joined. hPhe(3-Cl-4-CF3) = N[C@@H](CCc1ccc(C(F)(F)F)c(Cl)c1)C(=O)O; X46 = CCCCN([C@@H](Cc1ccc(C)cc1)C(=O)[*:2])[*:1]; NMeGly(cPent) = CN[C@H](C(=O)O)C1CCCC1; NMeD = CN[C@@H](CC(=O)O)C(=O)O; NMeL = CN[C@@H](CC(C)C)C(=O)O; Morpholide = C1CN(*)CCO1; NMeA = CN[C@@H](C)C(=O)O; Ac5c = NC1(C(=O)O)CCCC1; Aze = O=C(O)[C@@H]1CCN1; Sar = CNCC(=O)O

Key:
[1] = target: GDP-bound NRAS wild-type protein (Homo sapiens, UniProt P01111); assay: Binding to NRAS by surface plasmon resonance (SPR), Single Cycle Kinetics; settings: for NRAS/KRAS (ratio of KD value with respect to GDP-bound NRAS wild-type protein to KD value with respect to KRAS): SPR KD ratio NRAS/KRAS, class symbols
[2] = target: GDP-bound HRAS wild-type protein (Homo sapiens, UniProt P01112); assay: Binding to HRAS by surface plasmon resonance (SPR), Single Cycle Kinetics; settings: for HRAS/KRAS (ratio of KD value with respect to GDP-bound HRAS wild-type protein to KD value with respect to KRAS): SPR KD ratio HRAS/KRAS, class symbols
[3] = SPR, GDP-bound NRAS wild-type protein vs GDP-bound KRAS wild-type protein
[4] = SPR, GDP-bound HRAS wild-type protein vs GDP-bound KRAS wild-type protein

Sequence of GDP-bound NRAS wild-type protein (P01111 whole entry): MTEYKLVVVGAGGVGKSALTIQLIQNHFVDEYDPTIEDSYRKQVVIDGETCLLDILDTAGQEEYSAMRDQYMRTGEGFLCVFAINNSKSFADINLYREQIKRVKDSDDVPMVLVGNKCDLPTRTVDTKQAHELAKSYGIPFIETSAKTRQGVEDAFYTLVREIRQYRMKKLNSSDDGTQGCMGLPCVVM
Sequence of GDP-bound HRAS wild-type protein (P01112 whole entry): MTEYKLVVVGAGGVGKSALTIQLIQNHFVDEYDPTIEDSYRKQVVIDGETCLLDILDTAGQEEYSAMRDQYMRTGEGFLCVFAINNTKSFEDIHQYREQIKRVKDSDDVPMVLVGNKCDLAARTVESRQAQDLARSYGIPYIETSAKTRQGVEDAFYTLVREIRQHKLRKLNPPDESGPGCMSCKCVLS

SMILES	NRAS/KRAS (ratio of KD value with respect to GDP-bound NRAS wild-type protein to KD value with respect to KRAS) [1]	HRAS/KRAS (ratio of KD value with respect to GDP-bound HRAS wild-type protein to KD value with respect to KRAS) [2]	NRAS/KRAS (ratio of KD value for NRAS to KD value for KRAS) [1, 3]	HRAS/KRAS (ratio of KD value for HRAS to KD value for KRAS) [2, 4]	further results
CCO[C@@H]1C[C@H]2C(=O)NC3(CC(C)(C)C3)C(=O)N(C)[C@@H](C3CCCC3)C(=O)N(C)[C@H](C(=O)N(C)C)CC(=O)N(C)[C@@H](CC(C)C)C(=O)N[C@@H]([C@@H](C)CC)C(=O)N(C)CC(=O)N(C)[C@H]3C/C=C\CCN(C3=O)[C@@H](Cc3ccc(OC)cc3)C(=O)N(C)CC(=O)N[C@@H](CCc3ccc(C(F)(F)F)c(OC)c3)C(=O)N2C1 [PP2693]	A (a compound having 10 or more and less than 20 is denoted as A)	B (a compound having 3 or more and less than 10 is denoted as B)	–	–	–
CCCCN1C(=O)[C@@H]2CCN2C(=O)[C@H](C)N(C)C(=O)[C@H]([C@@H](C)CC)NC(=O)[C@H](CC(C)C)N(C)C(=O)C[C@@H](C(=O)N2CCOCC2)N(C)C(=O)[C@H](C2CCCC2)N(C)C(=O)C2(CCCC2)NC(=O)[C@@H]2CCCN2C(=O)[C@H](CCc2ccc(C(F)(F)F)c(Cl)c2)NC(=O)CN(C)C(=O)[C@@H]1Cc1ccc(C)cc1 [PP0055] ([NMeL]I[NMeA][Aze][X46][Sar][hPhe(3-Cl-4-CF3)]P[Ac5c][NMeGly(cPent)][NMeD]-Morpholide; lactam N-11)	–	–	C (A compound having a KD ratio of 0.1 or more and less than 3 is denoted as C)	C (A compound having a KD ratio of 0.1 or more and less than 3 is denoted as C)	–
CCCOC[C@H]1C(=O)N[C@@H]([C@@H](C)CC)C(=O)N(C)CC(=O)N(C)[C@H]2C/C=C\CCN(C2=O)[C@@H](Cc2ccc(C)cc2)C(=O)N(C)CC(=O)N[C@@H](CCc2cc(F)c(C(F)(F)F)c(F)c2)C(=O)N2C[C@H](OCC)C[C@H]2C(=O)NC2(CC(C)(C)C2)C(=O)N(C)[C@@H](C2CCCC2)C(=O)N(C)[C@H](C(=O)N(CC)CC)CC(=O)N1C [PP1578]	–	–	–	–	NRAS/KRAS (ratio of KD value for NRAS to KD value for KRAS) ([1]; SPR, GDP-bound NRAS wild-type protein vs GDP-bound KRAS wild-type protein, KD ratio class): A (a compound having 10 or more and less than 20 is denoted as A); HRAS/KRAS (ratio of KD value for HRAS to KD value for KRAS) ([2]; SPR, GDP-bound HRAS wild-type protein vs GDP-bound KRAS wild-type protein, KD ratio class): A (a compound having 10 or more and less than 20 is denoted as A)
CCOC[C@H]1C(=O)N[C@@H]([C@@H](C)CC)C(=O)N(C)CC(=O)N(C)[C@H]2C/C=C\CCN(C2=O)[C@@H](Cc2ccc(C3CC3)cc2)C(=O)N(C)CC(=O)N[C@@H](CCc2ccc(C(F)(F)F)c(OC)c2)C(=O)N2C[C@@H](C)C[C@H]2C(=O)NC2(CC(C)(C)C2)C(=O)N(C)[C@@H](C2CCCC2)C(=O)N(C)[C@H](C(=O)N(C)CC)CC(=O)N1C [PP2700]	A (a compound having 10 or more and less than 20 is denoted as A)	B (a compound having 3 or more and less than 10 is denoted as B)	–	–	–
CCCN1C(=O)CN(C)C(=O)CN(C)C(=O)[C@H]([C@@H](C)CC)NC(=O)[C@@H]2CCCCCCC[C@@](C)(NC(=O)[C@@H]3C[C@@H](OCC)CN3C(=O)[C@H](CCc3cc(F)c(C(F)(F)F)c(F)c3)NC(=O)CN(C)C(=O)[C@@H]1Cc1ccc(C(F)(F)F)cc1)C(=O)N(C)[C@@H](C1CCCC1)C(=O)N(C)[C@H](C(=O)N1CCOCC1)CC(=O)N2C (stereo in doubt) [PP0898]	–	–	B (a compound having 3 or more and less than 10 is denoted as B)	B (a compound having 3 or more and less than 10 is denoted as B)	–
CC[C@H](C)[C@@H]1NC(=O)[C@H](CC(C)C)N(C)C(=O)C[C@@H](C(=O)N(C)C)N(C)C(=O)[C@H](C2CCCC2)N(C)C(=O)C2(CCCC2)NC(=O)[C@@H]2C[C@@H](C)CN2C(=O)[C@H](CCc2cc(F)c(C(F)(F)F)c(F)c2)NC(=O)CN(C)C(=O)[C@H](Cc2ccc(C)cc2)N2CC/C=C\C[C@@H](C2=O)N(C)C(=O)CN(C)C1=O [PP2189]	–	–	A (a compound having 10 or more and less than 20 is denoted as A)	A (a compound having 10 or more and less than 20 is denoted as A)	–
CCO[C@@H]1C[C@H]2C(=O)NC3(CCC3)C(=O)N(C)[C@@H](C3CCCC3)C(=O)N(C)[C@H](C(=O)N3CCOCC3)CC(=O)N(C)[C@@H](CC(C)C)C(=O)N[C@@H]([C@H](C)CC)C(=O)N(C)CC(=O)N(C)[C@H]3CCCCN(C3=O)[C@@H](Cc3ccc(C(F)(F)F)cc3)C(=O)N(C)CC(=O)N[C@@H](CCc3cc(F)c(C(F)(F)F)c(F)c3)C(=O)N2C1 [PP0806]	–	–	–	–	NRAS/KRAS (ratio of KD value with respect to NRAS to KD value with respect to KRAS) [1, 3]: B (a compound having 3 or more and less than 10 is denoted as B); HRAS/KRAS (ratio of KD value with respect to HRAS to KD value with respect to KRAS) [2, 4]: B (a compound having 3 or more and less than 10 is denoted as B)
CCC[C@H]1C(=O)N[C@@H]([C@@H](C)CC)C(=O)N(C2CC2)CC(=O)N(C)[C@H]2C/C=C\CCN(C2=O)[C@@H](Cc2ccc(C)cc2)C(=O)N(C)CC(=O)N[C@@H](CCc2cc(Cl)c(C(F)F)c(Cl)c2)C(=O)N2C[C@H](OCC)C[C@H]2C(=O)NC2(CC(C)(C)C2)C(=O)N(C)[C@@H](C2CCCC2)C(=O)N(C)[C@H](C(=O)N(C)C)CC(=O)N1C [PP2877]	A (a compound having 10 or more and less than 20 is denoted as A)	A (a compound having 10 or more and less than 20 is denoted as A)	–	–	–
